The text below walks through data of patent publication US12226414B2, “1-isopropyl-3-methyl-8-(pyridin-3-yl)-1,3-dihydro-2H-imidazo[4,5-c] cinnolin-2-one as selective modulators of ataxia telangiectasia mutated (ATM) kinase and uses thereof” (SUZHOU ZANRONG PHARMA LIMITED, priority 2018, dated 2025).

The target in one data set is PI3Kα (p110α/p85a) (Homo sapiens (Human), UniProt P42336). Nature of the data set: PI3K biochemical potency assay (PI3Kα). Here is the method: (§1) PI3Kα (p110α/p85a), PIK3C δ, PIK3Cβ (p110β), PIK3Cγ (pp110γ) kinase reaction solutions of PI3Kα (Invitrogen, Cat. No. PV4788), PIK3Cδ (Invitrogen, Cat. No. PV6452), PIK3Cβ (Millipore, Cat. No. 14-603-K), PIK3Cγ (Invitrogen, Cat. No. PR8641C) enzymes were prepared in 1× kinase buffer at 4-fold of the final concentration (final concentration: PI3Kα 0.7 nM, PIK3Cδ 3 nM, PIK3Cβ 4.8 nM, PIK3Cγ 11 nM) of each reagent in the assay. 2.5 μl of kinase solution was added to each well of the 384-well assay plate, which contains 2.5 μl of compounds with serially diluted concentration. 2× substrate solution was prepared with PIP2 substrate and ATP in 1× kinase reaction buffer at 2-fold of the final concentration of each reagent in the assay. 5 μl of substrate solution was added to each well of the assay plate to start reaction. The assay plate was incubated at room temperature for 1 hour. 5 μl reaction mix was transferred to a new 384 well plate. 5 μl of ADP-Glo reagent (Promega, Cat. No. v9102/3, Lot. No. 0000176563) was added to each well of the new assay plate to stop the reaction. The plate was shaken slowly and equilibrated for 40 minutes. 10 μl kinase detection reagents was added to each well, which was equilibrated for 60 minutes before read on a plate reader (Envision) for luminescence.

The next data set addresses PIK3Cγ (pp110γ) (Homo sapiens (Human), UniProt P48736). Nature of the data set: PI3K biochemical potency assay (PI3Kγ). Here is the method:
as §1

Another data set has as its target mTOR (Homo sapiens (Human), UniProt P42345). Nature of the data set: mTOR biochemical potency assay. Here is the method: Solution of mTOR enzymes (Millipore, Cat. No. 14-770, Lot. No. 2052551) was prepared in 1× kinase buffer at 4-fold of the final concentration (final concentration: 6 nM) in the assay. 2.5 μl of kinase solution was added to each well of the 384-well assay plate, which contains 2.5 μl of compounds with serially diluted concentration. 2× substrate solution was prepared with ULight-4E-BP1 (Thr37/46) Peptide (PE, Cat. No. TRF0128-M, Lot. No. 1695274) and ATP in 1× kinase reaction buffer at 2-fold of the final concentration of each reagent in the assay. 5 μl of substrate solution was added to each well of the assay plate to start reaction. The assay plate was incubated at room temperature for 30 minutes. Detection solution of kinase quench buffer (EDTA) and Eu-anti-phospho-4E-BP1 antibody (Thr37/46) (PE, Cat. No. TRF0216-M, Lot. No. 1571838) were prepared at 2-fold the desired final concentrations of each reagent in Lance detection buffer. 10 μl of detection solution buffer was added to each well of the assay plate. The assay plate was equilibrated for 60 minutes at room temperature before read on a plate reader (Lance signal (665 nm) from Envision program).

The target in a further data set is PIK3Cδ (Homo sapiens (Human), UniProt O00329). Nature of the data set: PI3K biochemical potency assay (PI3Kδ). Here is the method:
as §1

Data set [1] concerns the target ATM in SN38 treated HT-29 cells (Homo sapiens (Human), UniProt Q13315). Nature of the data set: ATM SN-38 HT-29 cellular potency assay.
Experimental: Inhibition of ATM was evaluated in SN38 treated HT-29 cells (ATCC, Cat #HTB-38) by high-Content Imaging System
HT-29 cells were trypsinized and approximately 10,000 cells were seeded per well to 96-well microplates which were incubated overnight at 37° C. and 5% CO2. Test compounds were added to the 96-well plates which were incubated at 37° C. and 5% CO2 for 1 hour. […] After the plates were rinsed 3 times with PBSA, 50 μl permeabilization buffer (0.1% Triton-X 100 in PBSA) was added and the plates were incubated for 20 minutes at room temperature. After the plates were rinsed once with PBSA, 50 μl primary antibody solution was added and the plates were incubated in at 4° C. overnight. […] The plates were rinsed with PBST 3 times and then 100 μl PBSA were added per well. The plates were sealed with black plate seals.
The next data set deals with PIK3Cβ (p110β) (Homo sapiens (Human), UniProt P42338). Nature of the data set: PI3K biochemical potency assay (PI3Kβ). Here is the method: as §1
The target in a further data set is ATR (Homo sapiens (Human), UniProt Q13535). Nature of the data set: ATR biochemical potency assay. As for the experimental part: ATR enzyme was made by ChemPartner (batch: CP-ATR-20161102-M2). 2× enzyme solutions were prepared in 1× kinase base buffer. 10 μl of 2× enzyme solution (final concentration: 2.5 nM) was added to each well of the 384-well assay plate containing 60 nl compound in each well. The plate was incubated at room temperature for 10 minutes. 2× peptide solutions were prepared with FAM-labeled peptide and ATP in the 1× kinase base buffer. 10 μl of 2× peptide solution was added to each well of the 384-well assay plate, which was incubated at 28° C. for 240 min. 40 μl of stop buffer was added to stop reaction. Data were collected by Caliper.

A further data set has as its target ATM (Homo sapiens (Human), UniProt Q13315). Nature of the data set: ATM biochemical potency assay. As for the experimental part:
The plate was incubated at room temperature for 10 minutes. […] Data was collected by Caliper.

Another data set addresses P-glycoprotein (Pgp) (Homo sapiens (Human), UniProt P08183). Nature of the data set: MDCK-MDR1 Pgp assessment.
The target of the next data set is hERG channel (Homo sapiens (Human), UniProt Q12809). Nature of the data set: hERG safety assessment, manual patch clamp. Conditions: for hERG inhibition @10 μM: HEK 293 cells stably expressing hERG. A general note: The hERG channel carries a current that helps repolarise heart muscle cells.
For data set [2] the following is noted: cited from earlier work; for clearance as % liver blood flow: humans.
The target of data set [3] is T1, aldehyde oxidase (AO) (Homo sapiens (Human), UniProt Q06278). Nature of the data set: in vitro. Conditions: human liver cytosol.
The target in data set [4] is T1, aldehyde oxidase (AO). Nature of the data set: Aldehyde oxidase assay in human liver cytosol. The following applies: human liver cytosol 1 mg/mL, 0.5 μM compound.
The target in another data set is BCRP (Homo sapiens (Human), UniProt Q9UNQ0). Nature of the data set: Caco-2 BCRP assessment. Format: in vitro ADME. The following applies: −inhibitor/+inhibitor (novobiocin 30 μM). An excerpt: Caco-2 cells was used to study efflux transport mediated by BCRP.

pIC50: −log10 of the molar value.

Chain of PIK3Cδ (O00329 whole entry, looked up): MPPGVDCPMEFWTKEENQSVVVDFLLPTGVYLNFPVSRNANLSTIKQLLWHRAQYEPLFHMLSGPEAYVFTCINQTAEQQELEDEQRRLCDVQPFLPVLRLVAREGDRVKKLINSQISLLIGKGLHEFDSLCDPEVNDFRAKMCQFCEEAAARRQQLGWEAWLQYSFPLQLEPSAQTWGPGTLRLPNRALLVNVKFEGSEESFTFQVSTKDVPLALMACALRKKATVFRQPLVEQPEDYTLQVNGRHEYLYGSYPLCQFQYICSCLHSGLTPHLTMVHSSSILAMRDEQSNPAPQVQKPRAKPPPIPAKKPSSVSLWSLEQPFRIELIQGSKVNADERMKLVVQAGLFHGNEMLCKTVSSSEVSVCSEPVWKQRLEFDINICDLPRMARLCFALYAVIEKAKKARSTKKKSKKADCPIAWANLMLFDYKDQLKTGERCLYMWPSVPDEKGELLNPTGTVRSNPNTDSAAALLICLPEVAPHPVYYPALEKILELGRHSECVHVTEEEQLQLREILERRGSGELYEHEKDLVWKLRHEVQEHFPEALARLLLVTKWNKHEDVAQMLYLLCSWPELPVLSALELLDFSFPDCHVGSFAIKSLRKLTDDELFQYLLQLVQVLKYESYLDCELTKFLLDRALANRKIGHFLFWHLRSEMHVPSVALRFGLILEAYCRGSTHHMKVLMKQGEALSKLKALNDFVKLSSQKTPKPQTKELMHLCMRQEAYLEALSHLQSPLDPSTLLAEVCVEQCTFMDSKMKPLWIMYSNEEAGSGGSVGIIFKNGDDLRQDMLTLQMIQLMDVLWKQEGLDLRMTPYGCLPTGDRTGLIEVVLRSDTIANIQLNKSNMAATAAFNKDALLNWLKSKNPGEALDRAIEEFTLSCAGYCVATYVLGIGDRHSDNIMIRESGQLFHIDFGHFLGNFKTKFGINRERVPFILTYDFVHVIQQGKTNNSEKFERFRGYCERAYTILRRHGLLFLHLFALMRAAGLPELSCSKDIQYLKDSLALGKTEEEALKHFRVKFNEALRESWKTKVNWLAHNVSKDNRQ
Chain of PIK3Cδ (P27986 whole entry partner, looked up): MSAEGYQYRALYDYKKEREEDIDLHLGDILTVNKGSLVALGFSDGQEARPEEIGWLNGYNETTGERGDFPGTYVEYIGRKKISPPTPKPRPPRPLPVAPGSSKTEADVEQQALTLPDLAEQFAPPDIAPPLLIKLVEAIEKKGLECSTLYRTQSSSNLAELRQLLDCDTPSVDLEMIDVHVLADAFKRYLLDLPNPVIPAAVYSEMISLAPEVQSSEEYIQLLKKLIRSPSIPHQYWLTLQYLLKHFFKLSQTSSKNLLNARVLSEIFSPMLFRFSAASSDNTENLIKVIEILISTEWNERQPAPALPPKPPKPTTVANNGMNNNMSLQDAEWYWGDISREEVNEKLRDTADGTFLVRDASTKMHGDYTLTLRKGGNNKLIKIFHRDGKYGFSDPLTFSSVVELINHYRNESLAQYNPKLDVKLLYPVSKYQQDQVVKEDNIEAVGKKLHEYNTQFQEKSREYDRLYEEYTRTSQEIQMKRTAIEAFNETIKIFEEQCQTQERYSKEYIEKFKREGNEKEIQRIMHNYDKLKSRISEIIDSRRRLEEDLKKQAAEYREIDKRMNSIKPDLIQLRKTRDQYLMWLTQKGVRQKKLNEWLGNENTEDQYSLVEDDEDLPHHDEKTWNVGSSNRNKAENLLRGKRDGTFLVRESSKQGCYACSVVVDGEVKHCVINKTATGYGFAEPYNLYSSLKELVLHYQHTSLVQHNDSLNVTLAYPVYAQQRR
Chain of PIK3Cβ (p110β) (P42338 whole entry, looked up): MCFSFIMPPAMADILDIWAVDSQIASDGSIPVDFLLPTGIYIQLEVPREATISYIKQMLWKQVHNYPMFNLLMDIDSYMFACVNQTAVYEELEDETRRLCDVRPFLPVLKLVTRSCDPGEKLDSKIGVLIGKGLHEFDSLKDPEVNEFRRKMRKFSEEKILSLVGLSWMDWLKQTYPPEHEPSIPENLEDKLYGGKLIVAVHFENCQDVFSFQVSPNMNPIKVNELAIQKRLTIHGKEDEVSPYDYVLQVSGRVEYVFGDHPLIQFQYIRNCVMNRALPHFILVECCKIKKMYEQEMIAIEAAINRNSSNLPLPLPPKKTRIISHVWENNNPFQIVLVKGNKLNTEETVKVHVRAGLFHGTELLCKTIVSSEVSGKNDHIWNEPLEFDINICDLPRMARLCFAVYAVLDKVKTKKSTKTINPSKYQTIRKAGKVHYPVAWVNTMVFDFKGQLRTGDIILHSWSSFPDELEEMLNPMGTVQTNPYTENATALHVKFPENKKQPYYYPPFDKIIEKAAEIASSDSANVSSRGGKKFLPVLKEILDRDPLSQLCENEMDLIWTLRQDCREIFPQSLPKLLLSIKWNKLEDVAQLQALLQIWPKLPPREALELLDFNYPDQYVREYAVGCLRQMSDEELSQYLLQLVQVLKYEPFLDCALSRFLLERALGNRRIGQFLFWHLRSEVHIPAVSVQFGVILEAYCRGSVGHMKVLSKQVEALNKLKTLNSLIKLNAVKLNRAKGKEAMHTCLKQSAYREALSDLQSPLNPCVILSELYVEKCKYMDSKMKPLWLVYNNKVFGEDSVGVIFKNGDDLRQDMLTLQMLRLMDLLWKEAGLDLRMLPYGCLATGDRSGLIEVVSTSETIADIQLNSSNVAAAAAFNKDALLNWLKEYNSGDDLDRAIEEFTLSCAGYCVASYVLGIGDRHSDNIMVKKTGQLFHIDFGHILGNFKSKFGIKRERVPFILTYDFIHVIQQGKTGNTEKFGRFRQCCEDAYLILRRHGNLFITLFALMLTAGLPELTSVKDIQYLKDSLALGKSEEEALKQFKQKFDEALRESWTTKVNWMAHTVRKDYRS
Chain of PIK3Cβ (p110β) (P27986 whole entry partner, looked up): as the sequence (P27986 whole entry partner, looked up) above
Chain of hERG channel (Q12809 whole entry): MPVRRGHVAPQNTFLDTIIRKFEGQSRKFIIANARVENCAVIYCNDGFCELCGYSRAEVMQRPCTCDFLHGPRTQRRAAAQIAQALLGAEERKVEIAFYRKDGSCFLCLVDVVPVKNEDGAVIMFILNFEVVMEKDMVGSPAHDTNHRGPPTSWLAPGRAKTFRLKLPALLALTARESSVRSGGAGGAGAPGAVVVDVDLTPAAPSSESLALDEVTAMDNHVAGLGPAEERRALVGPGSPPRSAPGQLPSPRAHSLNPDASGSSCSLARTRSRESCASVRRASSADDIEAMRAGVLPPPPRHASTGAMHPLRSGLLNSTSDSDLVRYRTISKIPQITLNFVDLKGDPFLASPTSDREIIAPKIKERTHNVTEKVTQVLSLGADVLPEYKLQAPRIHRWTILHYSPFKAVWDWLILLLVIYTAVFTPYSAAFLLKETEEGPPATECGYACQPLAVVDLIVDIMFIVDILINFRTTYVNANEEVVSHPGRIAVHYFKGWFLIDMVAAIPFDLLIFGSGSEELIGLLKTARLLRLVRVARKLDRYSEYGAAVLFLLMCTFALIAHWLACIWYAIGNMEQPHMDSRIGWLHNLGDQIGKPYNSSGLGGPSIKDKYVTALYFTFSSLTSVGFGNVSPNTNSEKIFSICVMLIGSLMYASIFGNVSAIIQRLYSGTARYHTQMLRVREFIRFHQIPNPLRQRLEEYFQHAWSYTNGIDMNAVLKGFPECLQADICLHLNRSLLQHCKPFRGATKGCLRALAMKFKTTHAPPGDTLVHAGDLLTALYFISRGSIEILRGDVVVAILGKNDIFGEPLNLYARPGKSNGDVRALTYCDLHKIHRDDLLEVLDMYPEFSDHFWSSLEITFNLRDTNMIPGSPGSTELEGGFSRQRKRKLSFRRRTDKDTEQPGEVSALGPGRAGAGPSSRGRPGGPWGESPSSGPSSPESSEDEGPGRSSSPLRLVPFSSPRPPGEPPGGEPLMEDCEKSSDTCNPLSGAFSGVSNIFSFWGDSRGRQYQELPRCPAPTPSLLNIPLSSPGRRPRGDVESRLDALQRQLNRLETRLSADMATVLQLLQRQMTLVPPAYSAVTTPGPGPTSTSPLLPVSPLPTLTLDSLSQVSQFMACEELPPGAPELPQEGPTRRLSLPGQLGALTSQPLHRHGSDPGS
Chain of BCRP (Q9UNQ0 whole entry): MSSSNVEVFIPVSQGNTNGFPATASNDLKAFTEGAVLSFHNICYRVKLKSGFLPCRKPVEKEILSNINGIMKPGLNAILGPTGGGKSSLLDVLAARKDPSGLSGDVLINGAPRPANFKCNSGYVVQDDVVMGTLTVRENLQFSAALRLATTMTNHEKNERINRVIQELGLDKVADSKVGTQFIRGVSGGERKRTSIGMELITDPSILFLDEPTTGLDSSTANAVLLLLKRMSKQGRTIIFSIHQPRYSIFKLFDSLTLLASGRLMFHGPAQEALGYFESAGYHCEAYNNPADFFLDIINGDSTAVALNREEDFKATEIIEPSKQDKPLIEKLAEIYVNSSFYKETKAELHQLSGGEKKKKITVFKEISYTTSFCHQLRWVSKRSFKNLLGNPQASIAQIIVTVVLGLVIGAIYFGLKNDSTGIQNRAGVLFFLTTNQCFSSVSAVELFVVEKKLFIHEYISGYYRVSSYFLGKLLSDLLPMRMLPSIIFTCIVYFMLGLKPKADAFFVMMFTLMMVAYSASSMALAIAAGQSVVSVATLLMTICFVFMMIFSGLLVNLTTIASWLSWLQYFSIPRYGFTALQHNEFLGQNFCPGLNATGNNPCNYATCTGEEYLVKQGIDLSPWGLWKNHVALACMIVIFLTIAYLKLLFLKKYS
Experimental for P-glycoprotein (Pgp): Efflux transport mediated by P-glycoprotein (Pgp) was assessed by MDCK-MDR1 cells. The final concentrations of test compounds and control compound were at 1 μM. The multiwell insert plate was incubated at 37° C. for 2 hours.
Experimental for hERG channel: Inhibition of hERG channel was conducted in HEK 293 cell line stably expressing hERG channel by manual patch clamp.

For `CC(C)n1c(=O)n(C)c2nnc3cc(F)c(-c4ccc(OCCCN5CCCC5)nc4)cc3c21` [Example 3, 7-fluoro-1-isopropyl-3-methyl-8-(6-(3-(pyrrolidin-1-yl)propoxy)pyridin-3-yl)-1H-imidazo[4,5-c]cinnolin-2(3H)-one], the pIC50 (usually the negative decadic logarithm of the IC50, by convention in mol/L) at PI3Kα (p110α/p85a) is < 5.00; against PIK3Cγ (pp110γ), < 5.00; at mTOR, < 5.00; against PIK3Cδ, < 5.00; in data set [1], 7.96; against PIK3Cβ (p110β) it was < 5.00. In addition, the results for the pIC50 against ATR and against ATM were < 5.00 and 8.32, respectively.
Regarding `CC(C)n1c(=O)n(C)c2nnc3cc(F)c(-c4ccc(COCCN(C)C)nc4)cc3c21` [Example 6, 8-(6-((2-(dimethylamino)ethoxy)methyl)pyridin-3-yl)-7-fluoro-1-isopropyl-3-methyl-1H-imidazo[4,5-c]cinnolin-2(3H)-one], the pIC50 on PI3Kα (p110α/p85a) is < 5.00; on PIK3Cγ (pp110γ), < 5.00; on mTOR, < 5.00; against PIK3Cδ it was < 5.00; in data set [1], 7.15; against PIK3Cβ (p110β), < 5.00. Moreover, the pIC50 was < 5.00 on ATR and 7.00 on ATM.
`CC(C)n1c(=O)n(C)c2nnc3cc(F)c(-c4ccc(COCCN5CCCCC5)nc4)cc3c21` [Example 7, 7-fluoro-1-isopropyl-3-methyl-8-(6-((2-(piperidin-1-yl)ethoxy)methyl)pyridin-3-yl)-1H-imidazo[4,5-c]cinnolin-2(3H)-one]: the pIC50 against PI3Kα (p110α/p85a) was < 5.00; against PIK3Cγ (pp110γ) it was < 5.00; against mTOR, < 5.00; against PIK3Cδ, < 5.00; in data set [1] it was 6.56; at PIK3Cβ (p110β), < 5.00. Moreover, the results for the pIC50 at ATR and against ATM were < 5.00 and 7.59, respectively.
On to `CC(C)n1c(=O)n(C)c2nnc3cc(F)c(-c4ccc(COCCN5CC6CC6C5)nc4)cc3c21` (stereo not shown) [Example 11, 8-(6-((2-(3-azabicyclo[3.1.0]hexan-3-yl)ethoxy)methyl)pyridin-3-yl)-7-fluoro-1-isopropyl-3-methyl-1H-imidazo[4,5-c]cinnolin-2(3H)-one], for which the pIC50 against PI3Kα (p110α/p85a) is < 5.00; against PIK3Cγ (pp110γ), < 5.00; on mTOR, < 5.00; on PIK3Cδ, < 5.00; in data set [1] it was 7.74; against PIK3Cβ (p110β), < 5.00. The pIC50 at ATR is < 5.00; on ATM, 7.43.
`CC(C)n1c(=O)n(C)c2nnc3cc(F)c(-c4ccc(OCCCN5CCC(F)CC5)nc4)cc3c21` [Example 13, 7-fluoro-8-(6-(3-(4-fluoropiperidin-1-yl)propoxy)pyridin-3-yl)-1-isopropyl-3-methyl-1H-imidazo[4,5-c]cinnolin-2(3H)-one]: the pIC50 was < 5.00 against PI3Kα (p110α/p85a); < 5.00 against PIK3Cγ (pp110γ); < 5.00 against mTOR; < 5.00 at PIK3Cδ; 7.57 in data set [1]; < 5.00 against PIK3Cβ (p110β). In addition, the pIC50 on ATR is < 5.00; against ATM, < 6.00.
As for `CC(C)n1c(=O)n(C)c2nnc3cc(F)c(-c4ccc(OCCCN5CC6CC6C5)nc4)cc3c21` (stereo not shown) [Example 16, 8-(6-(3-(3-azabicyclo[3.1.0]hexan-3-yl)propoxy)pyridin-3-yl)-7-fluoro-1-isopropyl-3-methyl-1H-imidazo[4,5-c]cinnolin-2(3H)-one], the pIC50 on PI3Kα (p110α/p85a) was < 5.00; against PIK3Cγ (pp110γ) it was < 5.00; against mTOR it was < 5.00; against PIK3Cδ, < 5.00; in [1] it was 7.73; against PIK3Cβ (p110β) it was < 5.00. In addition, the pIC50 against ATR is < 5.00; against ATM, < 6.00.
Regarding `CC(C)n1c(=O)n(C)c2cnc3cc(F)c(-c4ccc(OCCCN5CCCCC5)nc4)cc3c21` [Ref. Comp. 3, AZD1390], the “Pgp substrate (in words)” value at P-glycoprotein (Pgp) was “not a Pgp substrate”. Besides, at hERG channel, the “hERG liability (in words)” value is listed as “significant hERG inhibition” and the “hERG inhibition @10 μM” value stood at 79%.
Turning to `CCN(C(C)=O)c1cccc(-c2ccnc3c(C#N)cnn23)c1` [Ref. Comp. 4, N-[3-(3-cyanopyrazolo[1,5-a]pyrimidin-7-yl)phenyl]-N-ethylacetamide], the “clearance as % liver blood flow” value in [2] was ~80 % liver blood flow. Besides, the microsomal CLint – broadly, the rate of metabolic loss divided by the concentration – at 0.5 μM at aldehyde oxidase (AO) [3] was determined as 3.1 µL/min/mg. On aldehyde oxidase (AO) [4], this compound yielded an AO intrinsic clearance of 3.1 μL/min/mg protein.
As to `OCCn1cc(-c2cnc3nnn(Cc4ccc5ncccc5c4)c3n2)cn1` [Ref. Comp. 5, 2-[4-[3-(quinolin-6-ylmethyl)triazolo[4,5-b]pyrazin-5-yl]pyrazol-1-yl]ethanol], in data set [2], the clearance in humans is 6 mL/min/kg and the “clearance as % liver blood flow” value is recorded as ~30 % liver blood flow.
On to `CN(C)CCCOc1ccc(-c2ccc3nnc4c(c3c2)n(C2CCOCC2)c(=O)n4C)cn1` [compound 1, 8-[6-(3-dimethylamino-propoxy)-pyridin-3-yl]-3-methyl-1-(tetrahydro-2H-pyran-4-yl)-1H-imidazo[4,5-c]cinnolin-2(3H)-one], for which the efflux ratio – broadly, the permeability from basolateral to apical divided by that in the opposite direction, in the common usage – at 2 h, 1 μM on BCRP stood at 0.62; on P-glycoprotein (Pgp) (human), 5.6. Further, on hERG channel, the “hERG inhibition @10 μM” value came to 58%. The pIC50 is 6.95 in [1] and 8.54 against ATM.
